Test results taken from patent US20250120961A1, “P53 MODULATORS” (Nested Therapeutics, Inc., priority 2023, published 2025).

biological target: His-tagged p53-Y220C DNA binding domain (Homo sapiens, UniProt P04637, Y220C); test: Biochemical p53-Y220C and DNA binding assay (HTRF); conditions: inflection point of 10 points dose titration, 4 parameter curve fit; p53-Y220C DBD 100 nM, biotinylated dsDNA 200 nM, 27 to 29° C.; read-out: HTRF IP
Method in brief: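 DBD (aa 94-312, 100 nM) mixed with compound and biotinylated consensus dsDNA (200 nM) in DPBS/20 mM NaCl/0.5% BSA, overnight at 4 °C, then 60 min at 27-29 °C; anti-His Tb/streptavidin-d2 HTRF read. Activation normalized to reference compound (500%) and DMSO (0%); 10-point curve, inflection point reported.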

Structure (SMILES)	EC50
Cc1oc(=O)oc1CO/N=C/c1sc2c(N[C@@H]3CNC[C@@H]3F)cccc2c1CC(F)(F)F [Example 2-20, (E)-7-(((3R,4S)-4-fluoropyrrolidin-3-yl)amino)-3-(2,2,2-trifluoroethyl)benzo[b]thiophene-2-carbaldehyde O-((5-methyl-2-oxo-1,3-dioxol-4-yl)methyl) oxime]	0.1 to 1 µM
CC(C)(C)O/N=C/c1sc2c(N[C@@H]3CNC[C@@H]3F)cccc2c1CC(F)(F)F [Example 2-16, (E)-7-(((3R,4S)-4-fluoropyrrolidin-3-yl)amino)-3-(2,2,2-trifluoroethyl)benzo[b]thiophene-2-carbaldehyde O-(tert-butyl) oxime]	> 1 µM
CC(=O)N1CCC(=Cc2sc3c(N[C@@H]4CCNC[C@@H]4F)cccc3c2CC(F)(F)F)CC1 [Example 4-2, 1-(4-((7-(((3S,4R)-3-fluoropiperidin-4-yl)amino)-3-(2,2,2-trifluoroethyl)benzo[b]thiophen-2-yl)methylene)piperidin-1-yl)ethan-1-one]	> 1 µM

Now from value to molecule:

EC50	Structure (SMILES)
0.1 to 1 µM	OC(CO/N=C/c1sc2c(N[C@@H]3CNC[C@@H]3F)cccc2c1CC(F)(F)F)C(F)(F)F (stereo partly drawn) [Example 1-5, (E)-7-(((3R,4S)-4-fluoropyrrolidin-3-yl)amino)-3-(2,2,2-trifluoroethyl)benzo[b]thiophene-2-carbaldehyde O-(3,3,3-trifluoro-2-hydroxypropyl) oxime]
0.1 to 1 µM	OC1(CO/N=C/c2sc3c(N[C@@H]4CNC[C@@H]4F)cccc3c2CC(F)(F)F)CCCC1 [Example 1-14, (E)-7-(((3R,4S)-4-fluoropyrrolidin-3-yl)amino)-3-(2,2,2-trifluoroethyl)benzo[b]thiophene-2-carbaldehyde O-((1-hydroxycyclopentyl)methyl) oxime]
